In patent US20260337187A1, “COMPOUNDS FOR TREATMENT OF INFLAMMATORY PROCESSES” (THORNE LIMITED, priority 2022, published 2026):
Where two headings read alike, the source gives them in different places.

What was measured:
Format in all cases: cell-based
primary human B cells = experiment: B lymphocyte IgE production (frequency of IgE+ B lymphocytes by FACS)
Description: B2 was applied at 3 different concentrations, from left to right: 50, 20 and 10 μM. Average of >10 experiments is shown.
B lymphocyte IgE production: B lymphocyte IgE production was measured in line with that previously described by Audzevich et al. (2013). Briefly, primary human B cells isolated by the MACSxpress Buffy Coat Pan B Cell Isolation Kit (Miltenyi Biotec) from buffy coat were stimulated for 6 days by recombinant hCD40L (100 μg/ml) and IL-4 (50 ng/ml) at a cell density of 5×10^4 cells/ml. The frequency of IgE+B lymphocytes was determined by FACS at day 6 using anti CD19 and anti IgE antibodies.
To investigate inhibition of B lymphocyte IgE production by B2, the frequency of IgE+B lymphocytes was determined by FACS at day 6 of primary human B cell cultures isolated from fresh buffy coat and stimulated by CD40L and IL4.

primary human mast cells = experiment: Mast cell cytokine release (cytokine array); settings: 100 μM B2, 24 h, IgE/anti-IgE
Description: FIG. 8 is a plot showing average relative intensity of cytokine levels relative to control showing the modulation of mast cell cytokine release by B2. Average of 3 experiments.
Mast cell cytokine release: Primary human mast cells developed in culture from CD34+ precursors as described above in relation to mast cell degranulation were stimulated at a cell density of 0.8×10^6 cells/ml by 0.12 mg/ml IgE and 0.1 μg/ml anti-IgE in mast cell medium (StemSpan SFEM including 100 ng/ml SCF, 50 ng/ml IL6, 2 & FBS, and 1% Pen/Strep). Simultaneously, the cells were treated with 100 μM B2, and cytokine levels present in the culture supernatants were measured after 24 h. The levels of 105 cytokines were measured by the R&D Systems Human XL cytokine array as per manufacturer's instructions. The signals were measured by a fluorescence-based photometric read-out in the Li—COR Odyssey Fluorescent imaging system, and the spots quantified by Fiji software.
To investigate the modulation of mast cell cytokine release by B2, primary human mast cells were stimulated by IgE/anti-IgE, treated with 100 μM B2, and cytokine levels present in the culture supernatants measured after 24 h. The levels of 105 cytokines were measured by the R&D Systems Human XL cytokine array and a fluorescence-based photometric read-out.

[1] = test system: Primary human pulmonary microvascular endothelial cells (HPMEC); experiment: Neutrophil adhesion to endothelial cells; settings: 10, 20 and 50 μM B2, TNF-α stimulated HPMEC (FIG. 11)
Excerpt: The number of adhered green-fluorescent labeled neutrophils per field of view normalized to the area covered by endothelial cells per field of view is shown. Three concentrations of B2 are shown next to the solvent (DMSO) control. An exemplary experiment out of three is shown.
Neutrophil adhesion to endothelial cells: Primary human pulmonary microvascular endothelial cells (HPMEC) were purchased from Promocell and maintained in endothelial cell media from Promocell as per the company's protocol. The endothelial cells were plated in flat bottom 96 well plastic plates at a concentration of 50,000 cells/well. After 24 h the endothelial cells were stimulated overnight by TNF-α (100 ng/ml) and the inhibitor. Neutrophils were isolated from whole blood using MACSxpress Neutrophil isolation kit. […] Samples were analyzed in triplicates and 3 fields of view were imaged per well. Cells per field of view were quantified using FiJi software.
To investigate the adhesion of neutrophils to endothelial cells, human primary neutrophils, were fluorescently labeled with 1 μM CellTracker dye and resuspended in HBS solution prior to addition of B2 or DMSO. Green fluorescent adherent cells were counted, the area covered by endothelial cell was measured, and the number of neutrophils adherent to endothelial cells normalized for the area covered by endothelial cells.

[2] = test system: Primary human pulmonary microvascular endothelial cells (HPMEC); experiment: Pulmonary endothelial cell cytokine release (TNFα triggered, cytokine array); settings: for inhibition at 50 µM: Homo sapiens, Endothelial cell, 50 μM B2, activated by TNF
Description: Endothelial cell cytokine release: Primary human pulmonary microvascular endothelial cells (HPMEC) were purchased from Promocell and maintained in endothelial cell media from Promocell as per the company's protocol. To measure the release of inflammatory mediators HPMEC were cultured to confluence in a 12 well plate in 1 ml of endothelial cell media. Cells were then stimulated with TNFα at 100 ng/ml overnight in the presence or absence of B2 or control DMSO. The supernatant was then collected and inflammatory mediator levels were measured in it using the Cytokine XXL array from R&D systems according to manufacturer's instructions as described above.
Human primary pulmonary endothelial cells were triggered to produce cytokines by the pro-inflammatory cytokine TNFα. The levels of 105 cytokines in the cell culture supernatant were measured by the R&D Systems Human XL cytokine array and a fluorescence-based photometric read-out. The table lists cytokines whose production was reduced by >50% (left) or 20 to 50% upon treatment with 50 μM B2 (right).

In the case of `Cc1onc(-c2ccccc2Cl)c1C(=O)Nc1nc2ccc([N+](=O)[O-])cc2s1` [B2, 3-(2-chlorophenyl)-5-methyl-N-(6-nitrobenzo[d]thiazol-2-yl)isoxazole-4-carboxamide], the “toxicity in B lymphocyte culture” value (primary human B cells; 50 μM B2, day 6) is reported as “some toxicity was observed”, the “IgE production by primary human peripheral blood B lymphocytes” value (primary human B cells; CD40L and IL4, day 6, FIG. 5 (50, 20, 10 μM)) is reported as “inhibits IgE production” and the “toxicity in B lymphocyte culture” value (primary human B cells; lower concentrations than 50 μM (20 and 10 μM), day 6) is reported as “not observed”. For the same compound, the “mast cell cytokine release profile” value (primary human mast cells) was “reducing specific pro-inflammatory cytokines”, the “neutrophil adhesion to endothelial cells” value [1] was “inhibition of neutrophil adhesion to endothelial cells” and the inhibition at 50 µM ([2]; *Poor dose response, only minor increase with TNF, read-out: FGF19 production, reduction) was 20 to 50%. For the same compound, the inhibition at 50 µM ([2]; read-out: CCL2/MCP-1 production, reduction) was 20 to 50%, the inhibition at 50 µM ([2]; read-out: CCL5/RANTES production, reduction) was greater than 50% and the inhibition at 50 µM ([2]; read-out: CCL20/MIP-3 alpha production, reduction) was 20 to 50%. It also gave an inhibition at 50 µM ([2]; read-out: CXCL1/GRO-alpha production, reduction) greater than 50%, an inhibition at 50 µM ([2]; read-out: CXCL5/ENA-78 production, reduction) greater than 50% and an inhibition at 50 µM ([2]; read-out: CXCL10/IP10 production, reduction) of 20 to 50%. The inhibition at 50 µM ([2]; read-out: GMCSF production, reduction) was greater than 50%, the inhibition at 50 µM ([2]; read-out: HGF production, reduction) was greater than 50% and the inhibition at 50 µM ([2]; read-out: ICAM-1 production, reduction) was greater than 50%. For the same compound, the inhibition at 50 µM ([2]; read-out: Pentraxin-3 production, reduction) was 20 to 50%, the inhibition at 50 µM ([2]; read-out: TFF3 production, reduction) was greater than 50% and the inhibition at 50 µM ([2]; read-out: VCAM-1 production, reduction) was greater than 50%. For the same compound, the “human pulmonary endothelial cell cytokine release profile” value ([2]; TNFα, Table 1) was “reducing specific pro-inflammatory cytokines”, the “secretion of several chemokines by endothelial cells” value ([2]; TNFα, Table 1) was “substantially reduced” and the “secretion of several soluble adhesion molecules by endothelial cells” value ([2]; TNFα, Table 1) was “reduced”. For the same compound, the “FGF19 production, dose response” value ([2]; activated by TNF, footnote * to FGF19) was “*Poor dose response, only minor increase with TNF”.
